# In patent US20250137054A1, “COMPOSITION AND METHOD FOR EVALUATING RESPONSIVENESS OF EDARAVONE” (MITSUBISHI TANABE PHARMA CORPORATION, priority 2022, published 2025):
# System: disease model cells (neurons derived from the 1464R cell line forcibly expressing wild-type and mutant TDP-43)
# Assay: RNA-seq gene expression analysis in disease model cells
# Assay type: cell-based, rat
# Protocol: Using both vectors (a) and (b), the differentiated cell line in the infection medium was infected with adenovirus at a multiplicity of infection of 50, and cultured for 24 hours. As a result, neurons derived from the 1464R cell line, in which both wild-type and mutant TDP-43 were forcibly expressed intracellularly (hereinafter, also referred to as disease model cells), were obtained.
# In the present evaluation, a 6-well plate treated with poly-L-lysine was used, cells were seeded at a density of 1×10^6 cells per well, cultured under the conditions of (1) of Example 1, and differentiated cells were used.
# (3) Group 3 (TDP-43+EA exposed group; represented as ‘Group 3’ in FIG. 4 and FIGS. 7-11): After preparing the disease model cells expressing TDP-43, the cells were cultured in differentiation medium free of Eda but containing EA (final concentration 20 μmol/L) for 24 hours. This experimental group forcibly expresses TDP-43 and simulates conditions where the target has a neurodegenerative disease and remains untreated.
# (4) Group 4 (TDP-43+EA+Eda exposed group; represented as ‘Group 4’ in FIG. 4 and FIGS. 7-11): After preparing the disease model cells expressing TDP-43, the cells were cultured in differentiation medium containing Eda (final concentration 50 μmol/L) but free of EA for 24 hours. After that, EA (final concentration 20 μmol/L) was further added, and the cells were further cultured for an additional 24 hours. This experimental group simulates conditions where the target with a neurodegenerative disease is administered or exposed to Eda.
# After the culture was completed, cell pellets containing 1×10^6 or more cells were obtained from the experimental groups (1)-(4). Total RNA was extracted from these cell pellets using NucleoSpin RNA (manufactured by Macherey-Nagel) according to a product protocol.
# Using the extracted total RNA (1.0 ng) as a template, double-stranded cDNA was synthesized using the SMART method using the SMART-Seq v4 Ultra (registered trademark) Low Input RNA Kit for Sequencing (manufactured by Clontech) according to a product protocol.
# Next, using the NovaSeq6000 system (NovaSeq6000 S4 reagent kit, NovaSeq Xp4 lane kit, and NovaSeq control software (version 1.6.0); all manufactured by Illumina), sequences of the cDNA library were determined according to a product protocol.
# Next, using the DRAGEN Bio-IT platform software (version 3.6.3, manufactured by Illumina) and referring to the rat genome assembly (version 6.0, top-level) and transcript annotation (release 101) obtained from the Ensembl database, types and abundance of genes were identified from the 150-base sequence information contained in the FASTQ files mentioned above.
# An RNA expression level (TPM) of a transcription product i measured from the cDNA library of the experimental groups was calculated based on alignment to the rat genome and transcription product annotation from the Ensembl database, according to the following equation (A).
# Differential expression analysis was performed using DESeq2 (a package for two-group comparison) in the statistical analysis software R (version 3.6.0) to calculate a log 2 ratio of RNA expression levels and a significance test. The log 2 ratio is a value expressed as “log 2 ([expression level of a first measurement target]/[expression level of a second measurement target]).”
# The significance test was performed based on a p-value calculated by Wald test with multiple testing correction based on the Benjamini-Hochberg method (BH method).
# In the present analysis, a gene with an absolute log 2 ratio of 1 or more (expression change ratio of 2.0 times or more or 0.50 times or less) and a p-value of 0.01 or less from the Wald test between any two groups was identified as a “gene with a change in expression level” (differentially expressed gene; DEG).
# The X-axis represents a first principal component, and the Y-axis represents a second principal component, with their respective contribution rates expressed as percentages. […]
# [1] = Group 3 (TDP43 + EA) vs Group 2 (Eda)
# [2] = Group 4 (TDP43 + EA + Eda) vs Group 1 (control)
# [3] = Group 4 (TDP43 + EA + Eda) vs Group 2 (Eda)
# [4] = Group 4 (TDP43 + EA + Eda) vs Group 3 (TDP43 + EA)
# [5] = Group 4 (TDP43+EA+Eda 50 μmol/L) vs Group 3 (TDP43+EA), RNA expression
# [6] = in the presence of edaravone, TDP-43 mutant protein present
structure (smiles),measurement,setting,value
"CC1=NN(c2ccccc2)C(=O)C1 [edaravone, 5-methyl-2-phenyl-2,4-dihydro-3H-pyrazol-3-one]",number of downregulated genes (DEGs),[1],478
same,number of upregulated genes (DEGs),[1],876
same,number of downregulated genes (DEGs),[2],"1,095"
same,number of upregulated genes (DEGs),[2],"1,654"
same,number of downregulated genes (DEGs),[3],"1,130"
same,number of upregulated genes (DEGs),[3],"1,661"
same,number of downregulated genes (DEGs),[4],260
same,number of upregulated genes (DEGs),[4],169
same,gene expression profile (principal component analysis of RNA-seq data),"Group 4 (TDP43 + EA + Eda) vs Group 3 (TDP43 + EA), FIG. 6",distinctly different gene expression profiles
same,Group 4 to Group 3 log2 ratio: Acsl6 (acyl-CoA synthetase long-chain family member 6),[5],−1.582
same,Group 4 to Group 3 log2 ratio: Cebpb (CCAAT/enhancer binding protein beta),[5],1.661
same,Group 4 to Group 3 log2 ratio: Glrx (glutaredoxin),[5],−1.262
same,Group 4 to Group 3 log2 ratio: Ho-1 (hemeoxygenase 1),[5],1.755
same,Group 4 to Group 3 log2 ratio: HspaS (heat shock protein family A (Hsp70) member 8),[5],1.151
same,Group 4 to Group 3 log2 ratio: Hsph1 (heat shock protein family H (Hsp110) member 1),[5],1.027
same,Group 4 to Group 3 log2 ratio: Mt1 (metallothionein 1),[5],−1.392
same,Group 4 to Group 3 log2 ratio: Nefl (neurofilament light),[5],−1.778
same,"Group 4 to Group 3 log2 ratio: Nfe2l2 (nuclear factor, erythroid 2-like 2)",[5],0.923
same,Group 4 to Group 3 log2 ratio: Nup43 (nucleoporin 43),[5],−0.888
same,Group 4 to Group 3 log2 ratio: Pik3cb,[5],1.157
same,"Group 4 to Group 3 log2 ratio: Plcg2 (phospholipase C, gamma 2)",[5],0.881
same,Group 4 to Group 3 log2 ratio: Plpp3 (phospholipid phosphatase 3),[5],1.307
same,Group 4 to Group 3 log2 ratio: Ptgds (prostaglandin D2 synthase),[5],0.954
same,Group 4 to Group 3 log2 ratio: Sqstm1 (sequestosome 1),[5],1.225
same,Group 4 to Group 3 log2 ratio: Txndc2 (thioredoxin domain containing 2),[5],1.153
same,log 2 ratio Group 4/Group 3: Alpl (ALPL),"Group 4 (TDP43+EA+Eda 50 μmol/L) vs Group 3 (TDP43+EA), RNA expression, DESeq2",−1.098
same,expression level of a gene product of ALPL,[6],decreases
same,expression level of a gene product of ASF1B,[6],decreases
same,expression level of a gene product of DCTD,[6],decreases
same,expression level of a gene product of FAIM2,[6],increases
same,expression level of a gene product of FCSK,[6],decreases
same,expression level of a gene product of HAUS4,[6],decreases
same,expression level of a gene product of ITGB4,[6],decreases
same,expression level of a gene product of KAZALD1,[6],decreases
same,expression level of a gene product of MAST1,[6],decreases
same,expression level of a gene product of MT2A,[6],decreases
same,expression level of a gene product of NTM,[6],decreases
same,expression level of a gene product of PTTG1,[6],decreases
same,expression level of a gene product of SBK1,[6],decreases
same,expression level of a gene product of SCN2A,[6],decreases
same,expression level of a gene product of UBE2L6,[6],decreases
